Reference: paper PMC4420714 (Peptides, 2015)
“Also recorded” adds a separate entry of the source. Where two headings read alike, the source gives them in different places. Blank lines part the entries; values can stand above or below the substance they belong to.

How the values were obtained:
VPAC1-R [1] = molecular target: T1, VPAC1-R (Homo sapiens, UniProt P32241); experiment: Binding of 125I-VIP to VPAC1-R/PANC-1 cells
T1 sequence (P32241 31-457): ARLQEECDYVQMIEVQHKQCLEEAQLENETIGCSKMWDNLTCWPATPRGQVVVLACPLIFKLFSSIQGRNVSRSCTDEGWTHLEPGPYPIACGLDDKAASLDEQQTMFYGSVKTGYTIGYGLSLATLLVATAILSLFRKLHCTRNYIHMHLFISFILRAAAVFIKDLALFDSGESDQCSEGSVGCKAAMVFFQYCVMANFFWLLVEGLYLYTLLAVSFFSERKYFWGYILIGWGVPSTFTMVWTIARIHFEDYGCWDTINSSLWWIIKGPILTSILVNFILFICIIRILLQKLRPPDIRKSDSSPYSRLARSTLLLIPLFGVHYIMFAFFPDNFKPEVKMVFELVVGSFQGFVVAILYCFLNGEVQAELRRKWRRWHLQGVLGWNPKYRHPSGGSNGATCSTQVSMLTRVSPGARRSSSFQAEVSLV

VPAC2-R [2] = molecular target: T2, VPAC2-R (Homo sapiens, UniProt P41587); experiment: [3H]cAMP generation in VPAC2-R/PANC-1 cells; format: cell-based; settings: for [3H]cAMP VPAC2-R/PANC-1 % max (agonist class): VPAC2-R/PANC-1 cells, relative to PACAP38, up to 1 µM
T2 sequence (P41587 24-438): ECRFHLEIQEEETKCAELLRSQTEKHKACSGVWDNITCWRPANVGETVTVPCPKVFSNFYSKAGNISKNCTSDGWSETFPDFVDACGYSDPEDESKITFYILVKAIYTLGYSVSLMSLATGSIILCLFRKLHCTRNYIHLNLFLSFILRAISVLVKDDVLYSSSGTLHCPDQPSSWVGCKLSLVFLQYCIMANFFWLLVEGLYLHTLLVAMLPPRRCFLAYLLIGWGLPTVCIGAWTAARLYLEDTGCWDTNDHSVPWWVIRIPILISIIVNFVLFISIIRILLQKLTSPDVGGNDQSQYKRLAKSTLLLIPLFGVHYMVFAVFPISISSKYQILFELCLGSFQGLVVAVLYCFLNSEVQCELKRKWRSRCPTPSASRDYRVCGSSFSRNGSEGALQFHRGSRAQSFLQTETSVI

PAC1-R [3] = molecular target: T3, PAC1-R (Homo sapiens, UniProt P41586); experiment: [3H]cAMP generation in PAC1-R cells; format: cell-based
T3 sequence (P41586 21-468): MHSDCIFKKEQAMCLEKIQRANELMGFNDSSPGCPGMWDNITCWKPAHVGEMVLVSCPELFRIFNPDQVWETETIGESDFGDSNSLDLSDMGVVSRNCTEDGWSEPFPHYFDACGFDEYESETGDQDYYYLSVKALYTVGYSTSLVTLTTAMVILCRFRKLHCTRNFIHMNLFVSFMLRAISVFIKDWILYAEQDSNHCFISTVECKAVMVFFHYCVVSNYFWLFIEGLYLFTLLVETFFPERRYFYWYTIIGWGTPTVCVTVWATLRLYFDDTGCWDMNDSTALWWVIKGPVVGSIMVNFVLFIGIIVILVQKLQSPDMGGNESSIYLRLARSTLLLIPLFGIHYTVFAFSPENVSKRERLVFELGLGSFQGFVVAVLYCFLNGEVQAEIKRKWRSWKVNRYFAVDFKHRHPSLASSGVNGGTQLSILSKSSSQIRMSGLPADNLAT

PAC1-R [4] = molecular target: T3, PAC1-R; experiment: Binding of 125I-PACAP27 to PAC1-R stably transfected NIH 3T3 cells
VPAC1-R [5] = molecular target: T1, VPAC1-R; experiment: [3H]cAMP generation in VPAC1-R/PANC-1 cells; format: cell-based; settings: for [3H]cAMP VPAC1-R/PANC-1 % max (agonist class): relative to PACAP38, up to 1 µM
VPAC2-R [6] = molecular target: T2, VPAC2-R; experiment: Binding of 125I-PACAP27 to VPAC2-R/PANC-1 cells; settings: ratio of binding IC50, analog vs native parent peptide
VPAC1-R [7] = molecular target: T1, VPAC1-R; experiment: [3H]cAMP generation in T47D cells; format: cell-based; settings: relative to PACAP38, up to 1 µM
[8] = ratio of binding IC50, analog vs native parent peptide

Substance: PACAP27 [reference compound]
higher affinity than PACAP38 for VPAC1-R/PANC-1 cells (VPAC1-R [1]; binding IC50 ratio): 6 fold | coupling ratio (IC50-binding affinity/EC50-cAMP generation), VPAC2-R/PANC-1 cells (VPAC2-R [2]): 4.8 fold | maximal increase in cAMP, VPAC2-R/PANC-1 cells (VPAC2-R [2]; over control): 6.5 ± 2.0 fold | coupling ratio (IC50-binding affinity/EC50-cAMP generation), PAC1-R cells (PAC1-R [3]): 94 fold | maximal increase in cAMP, PAC1-R cells (PAC1-R [3]): 4.1 ± 1.5 fold | decrease in affinity for PAC1-R cells compared to native PACAP38 (or PACAP27) (PAC1-R [4]): 10 fold | higher affinity (selectivity) for PAC1-R cells over VPAC2-R/PANC-1 cells (PAC1-R [4]): 2 fold | lower affinity for PAC1-R cells than VPAC1-R/PANC-1 cells (PAC1-R [4]): 12 fold | coupling ratio (IC50-binding affinity/EC50-cAMP generation), VPAC1-R/PANC-1 cells (VPAC1-R [5]): 1.2 fold | maximal increase in cAMP, VPAC1-R/PANC-1 cells (VPAC1-R [5]; over control): 5.0 ± 0.7 fold

Substance: vasoactive intestinal peptide [VIP, reference compound]
maximal increase in cAMP, VPAC2-R/PANC-1 cells (VPAC2-R [2]): 6.5 ± 2.0 fold | [3H]cAMP PAC1-R % max (agonist class) (PAC1-R [3]): No Act | less potent than PACAP38 and PACAP27 at stimulating PAC1-R cells (PAC1-R [3]; cAMP generation): > 800 fold | maximal increase in cAMP, PAC1-R cells (PAC1-R [3]; over control): 4.1 ± 1.5 fold | lower affinity for PAC1-R cells than VPAC1-R/PANC-1 cells (PAC1-R [4]; binding IC50 ratio, VPAC1-R preferring): > 1,000 fold | lower affinity for PAC1-R cells than VPAC2-R/PANC-1 cells (PAC1-R [4]; binding IC50 ratio, VPAC2-R preferring): > 400 fold | maximal increase in cAMP, VPAC1-R/PANC-1 cells (VPAC1-R [5]): 5.0 ± 0.7 fold

Substance: [Pip^3,Aib^16,28,Ala^17,20,Lys^34,D-Lys^38]PACAP38 [Peptide P41]
[3H]cAMP VPAC2-R/PANC-1 % max (agonist class) (VPAC2-R [2]): no agonist activity; also recorded: No Act

Substance: [Aib^2]PACAP38 [Peptide P15]
decrease in affinity for PAC1-R cells compared to native PACAP38 (or PACAP27) (PAC1-R [4]): 11–30 fold | lower affinity for PAC1-R cells than VPAC2-R/PANC-1 cells (PAC1-R [4]): 2–9 fold

Substance: [Iaa^1,D-Ser^2,Ala^22]PACAP38 [Peptide P48]
[3H]cAMP VPAC2-R/PANC-1 % max (agonist class) (VPAC2-R [2]): Ag (1 µM, 43) | decrease in affinity for VPAC2-R/PANC-1 cells compared to native PACAP38 (or PACAP27, VIP) (VPAC2-R [6]): 50–400 fold

Substance: [D-Ser^2]PACAP38 [Peptide P16]
decrease in affinity for VPAC1-R/PANC-1 cells compared to native PACAP38 (or PACAP27, VIP) (VPAC1-R [1]): 100–500 fold | higher potency for PAC1-R cells compared to VPAC1-R/PANC-1 cells (PAC1-R [3]): 2-to-5 fold | higher potency for PAC1-R cells compared to VPAC2-R/PANC-1 cells (PAC1-R [3]): 12–140 fold | decrease in affinity for PAC1-R cells compared to native PACAP38 (or PACAP27) (PAC1-R [4]): 11–30 fold | decrease in affinity for VPAC2-R/PANC-1 cells compared to native PACAP38 (or PACAP27, VIP) (VPAC2-R [6]): 15–500 fold

Substance: [Pip^3,Ala^14,17,Aib^16,28,Lys^34,D-Lys^38]PACAP38 [Peptide P39]
[3H]cAMP VPAC2-R/PANC-1 % max (agonist class) (VPAC2-R [2]): no agonist activity; also recorded: No Act

Further lines, with some results ahead:

decrease in affinity for VPAC2-R/PANC-1 cells compared to native PACAP38 (or PACAP27, VIP) (VPAC2-R [6]): 2-to-6 fold
Substance: [Aib^16,Ala^17,Lys^34]PACAP38 [Peptide P30]

[3H]cAMP VPAC2-R/PANC-1 % max (agonist class) (VPAC2-R [2]): Ag (1 µM, 33) | decrease in affinity for VPAC2-R/PANC-1 cells compared to native PACAP38 (or PACAP27, VIP) (VPAC2-R [6]): 50–400 fold
Substance: [Pip^3,Aib^16,28,Ala^17,Lys^34,D-Lys^38]PACAP38 [Peptide P35]

decrease in affinity for VPAC2-R/PANC-1 cells compared to native PACAP38 (or PACAP27, VIP) (VPAC2-R [6]): 2-to-6 fold
Substance: [Aib^16,28,Ala^17,Lys^34,D-Lys^38]PACAP38 [Peptide P34]

[3H]cAMP VPAC2-R/PANC-1 % max (agonist class) (VPAC2-R [2]): Ag (1 µM, 35) | decrease in affinity for VPAC2-R/PANC-1 cells compared to native PACAP38 (or PACAP27, VIP) (VPAC2-R [6]): 50–400 fold
Substance: [Hyp^3,Ala^16,17]PACAP38 [Peptide P20]

decrease in affinity for VPAC2-R/PANC-1 cells compared to native PACAP38 (or PACAP27, VIP) (VPAC2-R [6]): 2-to-6 fold
Substance: [Iac^1,Ala^16,17,D-Lys^38]PACAP38 [Peptide P29]

[3H]cAMP VPAC2-R/PANC-1 % max (agonist class) (VPAC2-R [2]): Ag (1 µM, 26) | decrease in affinity for VPAC2-R/PANC-1 cells compared to native PACAP38 (or PACAP27, VIP) (VPAC2-R [6]): 15–500 fold
Substance: [Pro^3]PACAP38 [Peptide P18]

decrease in affinity for VPAC1-R/PANC-1 cells compared to native PACAP38 (or PACAP27, VIP) (VPAC1-R [1]; [8]): 100–500 fold | [3H]cAMP VPAC2-R/PANC-1 % max (agonist class) (VPAC2-R [2]): Ag (1 µM, 19) | [3H]cAMP T47D % max (agonist class) (VPAC1-R [7]): No Act | [3H]cAMP VPAC1-R/PANC-1 % max (agonist class) (VPAC1-R [5]; VPAC1-R/PANC-1 cells): Ag (1 µM, 68) | decrease in affinity for VPAC2-R/PANC-1 cells compared to native PACAP38 (or PACAP27, VIP) (VPAC2-R [6]): 6–132 fold
Substance: [Me-Lys^15]PACAP27 [Peptide P2]

decrease in affinity for VPAC2-R/PANC-1 cells compared to native PACAP38 (or PACAP27, VIP) (VPAC2-R [6]): 50–400 fold
Substance: [β-Ala^3,Ala^16,17]PACAP38 [Peptide P21]
[3H]cAMP VPAC2-R/PANC-1 % max (agonist class) (VPAC2-R [2]): no agonist activity; also recorded: No Act

decrease in affinity for VPAC1-R/PANC-1 cells compared to native PACAP38 (or PACAP27, VIP) (VPAC1-R [1]; [8]): > 1,000 fold | [3H]cAMP VPAC2-R/PANC-1 % max (agonist class) (VPAC2-R [2]): Ag (1 µM, 13) | [3H]cAMP T47D % max (agonist class) (VPAC1-R [7]): No Act | [3H]cAMP VPAC1-R/PANC-1 % max of partial agonist (VPAC1-R [5]; VPAC1-R/PANC-1 cells, partial agonist maximum): pAg (24) % max
Substance: [N-Ac-His^1,Pip^3,Aib^16,Ala^17]PACAP27 [Peptide P8]
[3H]cAMP VPAC1-R/PANC-1 % max (agonist class) (VPAC1-R [5]; VPAC1-R/PANC-1 cells): partial agonists; also recorded: pAg (24)
